Measured values taken from BigSolDB 2.1.

NC(=O)OCCCc1ccccc1
solubility (mole fraction)
Conditions | 283.15 K | 288.15 K | 293.15 K | 298.15 K | 303.15 K | 308.15 K | 313.15 K | 318.15 K | 323.15 K
in 2-butanone | 0.0601 | 0.0718 | 0.0829 | 0.0993 | 0.117 | 0.131 | 0.147 | 0.164 | 0.187
in acetone | 0.0652 | 0.0775 | 0.0939 | 0.107 | 0.12 | 0.137 | 0.158 | 0.179 | 0.202
in ethanol | 0.0156 | 0.0178 | 0.0239 | 0.0307 | 0.0392 | 0.0493 | 0.0623 | 0.0808 | 0.1
in ethyl acetate | 0.0493 | 0.0567 | 0.0687 | 0.0803 | 0.0929 | 0.104 | 0.117 | 0.13 | 0.144
in isopropanol | 0.0108 | 0.0149 | 0.0207 | 0.0261 | 0.0339 | 0.0439 | 0.0587 | 0.0769 | 0.0904
in methanol | 0.0202 | 0.0247 | 0.0321 | 0.0396 | 0.0492 | 0.0614 | 0.0752 | 0.1 | 0.118
in methyl acetate | 0.0494 | 0.059 | 0.0719 | 0.0862 | 0.101 | 0.119 | 0.139 | 0.161 | 0.186
in n-butanol | 0.00704 | 0.012 | 0.0198 | 0.0279 | 0.0391 | 0.0492 | 0.0663 | 0.0824 | 0.0972
in n-pentanol | 0.0174 | 0.02 | 0.0239 | 0.031 | 0.0404 | 0.0523 | 0.0668 | 0.081 | 0.0946
in n-propanol | 0.0127 | 0.0155 | 0.0219 | 0.028 | 0.0349 | 0.045 | 0.0589 | 0.0771 | 0.0989
in sec-butanol | 0.0138 | 0.017 | 0.0226 | 0.0299 | 0.0405 | 0.0515 | 0.0679 | 0.092 | 0.118
in water | 8.1e-06 | 1.5e-05 | 3.19e-05 | 5.99e-05 | 0.000107 | 0.000165 | 0.000229 | 0.000293 | 0.000378
